Measured values published in patent US4404217A, “3-Indolyl alkylene amino propanols and cardiovascular compositions thereof” (C. M. Industries, priority 1979, dated 1983).

target: T1, α2 receptor (Rattus norvegicus, UniProt P22909); test: Displacement of 3H clonidine, plasmic membranes of rat brains; assay type: binding; details: read-out: EC50 of DISPLACEMENT of 3H CLONIDINE; rat brain membranes; 3H clonidine 1.2×10^-9 M
T1 construct: plasmic membranes of rat brains; from tissue; host or cells: rat brain plasma membranes
T1 sequence (P22909 1-465): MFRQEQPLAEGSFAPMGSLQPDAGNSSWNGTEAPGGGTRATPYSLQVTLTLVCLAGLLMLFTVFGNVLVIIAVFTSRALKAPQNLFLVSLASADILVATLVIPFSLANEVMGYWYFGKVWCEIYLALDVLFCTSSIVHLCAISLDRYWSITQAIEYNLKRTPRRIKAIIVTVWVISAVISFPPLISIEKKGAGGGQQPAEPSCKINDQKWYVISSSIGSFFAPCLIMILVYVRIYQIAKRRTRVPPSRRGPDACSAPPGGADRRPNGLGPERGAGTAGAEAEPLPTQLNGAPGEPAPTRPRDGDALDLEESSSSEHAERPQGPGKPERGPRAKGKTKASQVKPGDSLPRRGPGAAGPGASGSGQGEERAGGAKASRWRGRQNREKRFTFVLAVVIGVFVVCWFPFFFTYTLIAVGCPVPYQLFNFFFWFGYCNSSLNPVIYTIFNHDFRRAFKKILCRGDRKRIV
Experimental: (§1) The binding tests are effected on suspensions of plasmic membranes coming from various organs. The suspensions of membranes are placed in incubation with the tritiated ligand and various concentrations of products to be tested. After incubation, each test is filtered on GFB(Whatman) filter, the filters are dried and introduced into counting flasks. The measurement of the radioactivity is assessed by scintillation in a liquid medium.
(§2) The tests were made on plasmic membranes of rat brains, in the presence of ^3 H clonidine 1.2×10^-9 M (α2 receptor) and of ^3 H WB4101 (N-[2-(2.6dimethoxyphenoxy)ethyl]1.4benzodioxane-2-methylamine), 0.2×10^-9 M (α1 receptor).

Row | SMILES | EC50
1 | Cc1ccccc1OCC(O)CNC(CO)Cc1c[nH]c2ccccc12 (racemic) [compound 7906] | 41 nM

target: T2, β1 receptor (Canis lupus familiaris, UniProt P79148); test: Displacement of 3H dihydroalprenolol, plasmic membranes of hearts of dogs; assay type: binding, dog; details: not given
T2 construct: plasmic membranes of hearts of dogs (β1 receptor); from tissue; host or cells: dog heart plasma membranes
Experimental: as §1
(§3) The tests were made on plasmic membranes of hearts of dogs (β1 receptor) and lungs of rats (β2 receptors), in the presence of ^3 H dihydroalprenolol 4×10^-9 M.

T2 sequence (P79148 whole entry): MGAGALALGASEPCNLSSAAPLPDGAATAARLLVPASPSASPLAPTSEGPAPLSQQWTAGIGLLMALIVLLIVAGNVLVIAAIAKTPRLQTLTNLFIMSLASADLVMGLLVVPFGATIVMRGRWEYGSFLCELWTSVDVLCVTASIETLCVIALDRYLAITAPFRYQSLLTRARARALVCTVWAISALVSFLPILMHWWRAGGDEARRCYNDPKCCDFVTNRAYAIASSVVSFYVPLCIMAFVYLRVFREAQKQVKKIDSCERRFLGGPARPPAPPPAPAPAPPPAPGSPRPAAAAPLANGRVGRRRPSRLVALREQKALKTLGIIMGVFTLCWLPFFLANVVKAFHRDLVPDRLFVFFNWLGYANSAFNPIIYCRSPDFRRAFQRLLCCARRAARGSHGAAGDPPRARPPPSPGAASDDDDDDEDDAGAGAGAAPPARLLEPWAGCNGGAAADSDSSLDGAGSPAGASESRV

Row | SMILES | EC50
2 | CC(Cc1c[nH]c2ccccc12)NCC(O)COc1ccccc1C(=O)c1ccccc1 (stereo not shown) [compound 7904] | 7.9 nM
3 | Cc1ccccc1OCC(O)CNC(C)Cc1c[nH]c2ccc(F)cc12 (stereo not shown) [compound 7983] | 19 nM

same assay, conditions: dog heart membranes; 3H dihydroalprenolol 4×10^-9 M

Row | SMILES | EC50
4 | CCCC(=O)Nc1ccc(OCC(O)CNC(C)Cc2c[nH]c3ccccc23)c(C(C)=O)c1 (stereo not shown) [compound 7798] | 550 nM
5 | Cc1ccccc1OC[C@@H](O)CN[C@H](CO)Cc1c[nH]c2ccccc12 [compound 7898] | 51 nM
6 | Cc1ccccc1OC[C@@H](O)CN[C@@H](CO)Cc1c[nH]c2ccccc12 [compound 7899] | 135 nM
7 | Cc1ccccc1OC[C@H](O)CN[C@@H](CO)Cc1c[nH]c2ccccc12 [compound 7902] | 7400 nM

same assay, conditions: in vitro, compared with lung β2 (A5)

Row | SMILES | affinity for β1 receptors (heart) versus β2 receptors (lungs)
8 | CCCC(=O)Nc1ccc(OCC(O)CNC(C)Cc2c[nH]c3ccccc23)c(C(C)=O)c1 (stereo not shown) [compound 7798] | clearly greater affinity for the β1 receptors (heart) than for the β2 receptors (lungs)

same assay, conditions: read-out: EC50 of DISPLACEMENT of 3H DIHYDROALPRENOLOL, Heart (β1); dog heart membranes; 3H dihydroalprenolol 4×10^-9 M

Row | SMILES | EC50
9 | Cc1ccccc1OCC(O)CNC(CO)Cc1c[nH]c2ccccc12 (racemic) [compound 7906] | 215 nM

test system: α adrenergic receptors; test: Antagonism of the effects of noradrenaline (pressure response), anaesthetized dog, IV; assay type: in vivo; details: 50% inhibition of pressure response to noradrenaline
Experimental: (§4) The dog is anaesthetized using sodium pentobarbital, administered by the IV route at a dose of 30 mg/kg. A cannula placed in the saphenous vein allows the intra-venous injections of the products. The animal is submitted to intubation and is allowed to breathe spontaneously.
(§5) The cardiac frequency and the systemic arterial pressure are studied and the variations of these parameters are observed after intra-venous injection of the product to be tested. Each product is tested with increasing doses.
The antagonism of the products with respect to the vascular effects provoked by the IV administration of noradrenaline on the α adrenergic receptors has been sought. The results presented in Table III are expressed in ID50 : it is the dose (mg/kg) which provokes the inhibition by 50% of the pressure response due to the IV administration of noradrenaline.

Row | SMILES | ID50 NORADRENALINE α
10 | Cc1ccccc1OCC(O)CNC(CO)Cc1c[nH]c2ccccc12 (racemic) [compound 7906] | > 3 mg/kg
11 | CCCC(=O)Nc1ccc(OCC(O)CNC(C)Cc2c[nH]c3ccccc23)c(C(C)=O)c1 (stereo not shown) [compound 7798] | > 3 mg/kg
12 | Cc1ccccc1OC[C@@H](O)CN[C@H](CO)Cc1c[nH]c2ccccc12 [compound 7898] | > 3 mg/kg
13 | Cc1ccccc1OC[C@@H](O)CN[C@@H](CO)Cc1c[nH]c2ccccc12 [compound 7899] | > 3 mg/kg
14 | Cc1ccccc1OC[C@H](O)CN[C@@H](CO)Cc1c[nH]c2ccccc12 [compound 7902] | > 3 mg/kg
15 | CC(Cc1c[nH]c2ccccc12)NCC(O)COc1ccccc1C(=O)c1ccccc1 (stereo not shown) [compound 7904] | > 0.3 mg/kg
16 | Cc1ccccc1OCC(O)CNC(C)Cc1c[nH]c2ccc(F)cc12 (stereo not shown) [compound 7983] | > 0.3 mg/kg

test system: not listed separately; test: Cardiac frequency and arterial pressure in the anaesthetized dog after intravenous injection; assay type: in vivo; details: i.v. route, anaesthetised dog
Experimental: as §4, §5

Row | SMILES | reduction in the peripheral arterial pressure
17 | Cc1ccccc1OCC(O)CNC(CO)Cc1c[nH]c2ccccc12 (racemic) [compound 7906] | reduction in the peripheral arterial pressure
18 | Cc1ccccc1OC[C@@H](O)CN[C@H](CO)Cc1c[nH]c2ccccc12 [compound 7898] | reduction in the peripheral arterial pressure
19 | Cc1ccccc1OC[C@@H](O)CN[C@@H](CO)Cc1c[nH]c2ccccc12 [compound 7899] | reduction in the peripheral arterial pressure
20 | Cc1ccccc1OC[C@H](O)CN[C@@H](CO)Cc1c[nH]c2ccccc12 [compound 7902] | reduction in the peripheral arterial pressure

target: T3, β adrenergic receptors (β2) (Canis lupus familiaris, UniProt P54833); test: Antagonism of the effects of isoprenaline, hypotension (β2), anaesthetized dog, IV; assay type: in vivo; details: IV, 50% inhibition of isoprenaline hypotension, read-out: ID50 ISOPRENALINE β2
T3 construct: The dog is anaesthetized using sodium pentobarbital; from tissue; host or cells: whole anaesthetized dog (vasculature)
Experimental: as §4, §5
The antagonism of the products with respect to the β stimulant cardio-vascular effects of isoprenaline on the β adrenergic receptors has been sought. […] The last column indicates the cardioselectivity (β1 >β2) or a low cardioselectivity β1 ≥β2, or no cardioselectivity β1 <β2 and β1 =β2.

T3 sequence (P54833 whole entry): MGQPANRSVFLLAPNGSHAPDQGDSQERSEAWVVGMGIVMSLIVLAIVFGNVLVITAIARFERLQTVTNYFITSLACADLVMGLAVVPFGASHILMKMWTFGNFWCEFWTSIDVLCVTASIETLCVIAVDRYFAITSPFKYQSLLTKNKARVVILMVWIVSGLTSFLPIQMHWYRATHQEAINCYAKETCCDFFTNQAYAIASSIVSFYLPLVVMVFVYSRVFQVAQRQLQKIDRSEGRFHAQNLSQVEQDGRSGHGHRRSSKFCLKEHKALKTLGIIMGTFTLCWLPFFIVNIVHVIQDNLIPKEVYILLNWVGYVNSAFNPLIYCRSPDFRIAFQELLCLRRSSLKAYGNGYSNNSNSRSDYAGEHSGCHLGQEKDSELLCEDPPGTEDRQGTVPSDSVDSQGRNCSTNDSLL

Row | SMILES | ED50
21 | Cc1ccccc1OCC(O)CNC(CO)Cc1c[nH]c2ccccc12 (racemic) [compound 7906] | 1 mg/kg
22 | CCCC(=O)Nc1ccc(OCC(O)CNC(C)Cc2c[nH]c3ccccc23)c(C(C)=O)c1 (stereo not shown) [compound 7798] | ≥ 3 mg/kg
23 | Cc1ccccc1OC[C@@H](O)CN[C@H](CO)Cc1c[nH]c2ccccc12 [compound 7898] | 0.3 to 1 mg/kg
24 | Cc1ccccc1OC[C@@H](O)CN[C@@H](CO)Cc1c[nH]c2ccccc12 [compound 7899] | 0.3 to 1 mg/kg
25 | Cc1ccccc1OC[C@H](O)CN[C@@H](CO)Cc1c[nH]c2ccccc12 [compound 7902] | > 3 mg/kg
26 | CC(Cc1c[nH]c2ccccc12)NCC(O)COc1ccccc1C(=O)c1ccccc1 (stereo not shown) [compound 7904] | 0.1 mg/kg

same assay, conditions: iv, read-out: ID50 ISOPRENALINE β2

Row | SMILES | ED50
27 | Cc1ccccc1OCC(O)CNC(C)Cc1c[nH]c2ccc(F)cc12 (stereo not shown) [compound 7983] | > 0.3 mg/kg

target: T4, β2 receptors (Rattus norvegicus, UniProt P10608); test: Displacement of 3H dihydroalprenolol, plasmic membranes of lungs of rats; assay type: binding; details: not given
T4 construct: lungs of rats (β2 receptors); from tissue; host or cells: rat lung plasma membranes
Experimental: as §1, §3

T4 sequence (P10608 whole entry): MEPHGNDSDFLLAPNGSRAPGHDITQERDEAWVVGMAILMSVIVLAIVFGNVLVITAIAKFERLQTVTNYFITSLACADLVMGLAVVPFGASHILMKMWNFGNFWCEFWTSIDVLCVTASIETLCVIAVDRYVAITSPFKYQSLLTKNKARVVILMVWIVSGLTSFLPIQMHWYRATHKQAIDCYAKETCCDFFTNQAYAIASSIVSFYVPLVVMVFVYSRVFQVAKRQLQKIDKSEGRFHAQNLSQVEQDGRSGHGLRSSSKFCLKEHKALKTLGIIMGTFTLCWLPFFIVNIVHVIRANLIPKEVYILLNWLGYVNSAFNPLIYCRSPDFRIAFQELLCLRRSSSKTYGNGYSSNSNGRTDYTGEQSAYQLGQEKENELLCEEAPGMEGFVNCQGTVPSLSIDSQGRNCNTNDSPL

Row | SMILES | EC50
28 | CC(Cc1c[nH]c2ccccc12)NCC(O)COc1ccccc1C(=O)c1ccccc1 (stereo not shown) [compound 7904] | 14 nM
29 | Cc1ccccc1OCC(O)CNC(C)Cc1c[nH]c2ccc(F)cc12 (stereo not shown) [compound 7983] | 47 nM

same assay, conditions: rat lung membranes; 3H dihydroalprenolol 4×10^-9 M

Row | SMILES | EC50
30 | Cc1ccccc1OC[C@@H](O)CN[C@H](CO)Cc1c[nH]c2ccccc12 [compound 7898] | 64 nM
31 | Cc1ccccc1OC[C@@H](O)CN[C@@H](CO)Cc1c[nH]c2ccccc12 [compound 7899] | 82 nM
32 | Cc1ccccc1OC[C@H](O)CN[C@@H](CO)Cc1c[nH]c2ccccc12 [compound 7902] | 3800 nM

same assay, conditions: read-out: EC50 of DISPLACEMENT of 3H DIHYDROALPRENOLOL, Lung (β2); rat lung membranes; 3H dihydroalprenolol 4×10^-9 M

Row | SMILES | EC50
33 | Cc1ccccc1OCC(O)CNC(CO)Cc1c[nH]c2ccccc12 (racemic) [compound 7906] | 155 nM

test system: α1 receptor; test: Displacement of 3H WB 4101, plasmic membranes of rat brains; assay type: binding; details: in vitro
Experimental: as §1, §2

Row | SMILES | affinity for the receptor with WB 4101 (α1)
34 | Cc1ccccc1OCC(O)CNC(C)Cc1c[nH]c2ccc(F)cc12 (stereo not shown) [compound 7983] | have an affinity

same assay, conditions: read-out: EC50 of DISPLACEMENT of 3H WB 4101; rat brain membranes; 3H WB4101 0.2×10^-9 M

Row | SMILES | EC50
35 | Cc1ccccc1OCC(O)CNC(CO)Cc1c[nH]c2ccccc12 (racemic) [compound 7906] | 1.1 nM
36 | Cc1ccccc1OCC(O)CNC(C)Cc1c[nH]c2ccc(F)cc12 (stereo not shown) [compound 7983] | 600 nM

target: T5, β adrenergic receptors (β1) (Canis lupus familiaris, UniProt P79148); test: Antagonism of the effects of isoprenaline, tachycardia (β1), anaesthetized dog, IV; assay type: in vivo; details: dog, IV; 50% inhibition of isoprenaline tachycardia; read-out: ID50 ISOPRENALINE β1
T5 construct: The dog is anaesthetized using sodium pentobarbital; from tissue; host or cells: whole anaesthetized dog (heart)
T5 sequence (P79148 whole entry): as the sequence (P79148 whole entry) above

Row | SMILES | ED50
37 | Cc1ccccc1OCC(O)CNC(CO)Cc1c[nH]c2ccccc12 (racemic) [compound 7906] | 0.3 to 1 mg/kg
38 | Cc1ccccc1OC[C@@H](O)CN[C@H](CO)Cc1c[nH]c2ccccc12 [compound 7898] | 0.1 to 0.3 mg/kg
39 | Cc1ccccc1OC[C@@H](O)CN[C@@H](CO)Cc1c[nH]c2ccccc12 [compound 7899] | 0.3 mg/kg
40 | Cc1ccccc1OC[C@H](O)CN[C@@H](CO)Cc1c[nH]c2ccccc12 [compound 7902] | > 3 mg/kg

same assay, conditions: dog, IV; isoprenaline antagonism, β1 versus β2

Row | SMILES | cardioselectivity β1 - β2
41 | Cc1ccccc1OCC(O)CNC(CO)Cc1c[nH]c2ccccc12 (racemic) [compound 7906] | β1 ≥ β2 (low cardioselectivity β1 ≥β2)
42 | CCCC(=O)Nc1ccc(OCC(O)CNC(C)Cc2c[nH]c3ccccc23)c(C(C)=O)c1 (stereo not shown) [compound 7798] | β1 > β2 (cardioselectivity (β1 >β2))
43 | Cc1ccccc1OC[C@@H](O)CN[C@H](CO)Cc1c[nH]c2ccccc12 [compound 7898] | β1 ≥ β2 (low cardioselectivity β1 ≥β2)
44 | Cc1ccccc1OC[C@@H](O)CN[C@@H](CO)Cc1c[nH]c2ccccc12 [compound 7899] | β1 ≥ β2 (low cardioselectivity β1 ≥β2)
45 | Cc1ccccc1OC[C@H](O)CN[C@@H](CO)Cc1c[nH]c2ccccc12 [compound 7902] | β1 < β2 (no cardioselectivity β1 <β2)
46 | CC(Cc1c[nH]c2ccccc12)NCC(O)COc1ccccc1C(=O)c1ccccc1 (stereo not shown) [compound 7904] | β1 ≥ β2 (low cardioselectivity β1 ≥β2)
47 | Cc1ccccc1OCC(O)CNC(C)Cc1c[nH]c2ccc(F)cc12 (stereo not shown) [compound 7983] | β1 > β2 (cardioselectivity (β1 >β2))

same assay, conditions: dog, iv, read-out: ID50 ISOPRENALINE β1

Row | SMILES | ED50
48 | CCCC(=O)Nc1ccc(OCC(O)CNC(C)Cc2c[nH]c3ccccc23)c(C(C)=O)c1 (stereo not shown) [compound 7798] | 1 mg/kg
49 | CC(Cc1c[nH]c2ccccc12)NCC(O)COc1ccccc1C(=O)c1ccccc1 (stereo not shown) [compound 7904] | ≤ 0.1 mg/kg
50 | Cc1ccccc1OCC(O)CNC(C)Cc1c[nH]c2ccc(F)cc12 (stereo not shown) [compound 7983] | 0.3 mg/kg

same assay, conditions: test with isoprenaline

Row | SMILES | cardioselective in vivo (selectively inhibit the cardiac receptors)
51 | CCCC(=O)Nc1ccc(OCC(O)CNC(C)Cc2c[nH]c3ccccc23)c(C(C)=O)c1 (stereo not shown) [compound 7798] | cardioselective in vivo
52 | Cc1ccccc1OCC(O)CNC(C)Cc1c[nH]c2ccc(F)cc12 (stereo not shown) [compound 7983] | cardioselective in vivo
